Assay results as given in the supplement of paper PMC10331698.
± gives the standard deviation of the averaged measurements.

Legend:
Assay in all cases: level (log10 ratio to DMSO vehicle control); higher = higher biomarker level / cell amount than vehicle control
Conditions in all cases: in DMSO
[1] = compound: C=C(C)C(=O)OCCC(F)(F)C(F)(F)C(F)(F)C(F)(F)C(F)(C(F)(F)F)C(F)(F)F [(Perfluoro-5-methylhexyl)ethyl 2-methylprop-2-enoate]
Method: (§1)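 BioMAP Diversity Plus panel of 12 human primary cell co-culture systems (3C, 4H, LPS, SAg, BT, BF4T, BE3C, CASM3C, HDF3CGF, KF3CT, MyoF, Mphg). Compounds were added 1 h before stimulation and left for 24 h (MyoF 48 h; BT 72 h for soluble read-outs or 6 d for IgG). Biomarkers were read by ELISA, cytotoxicity by SRB, PBMC viability and proliferation by Alamar Blue. Each well value was divided by the mean of 8 DMSO control wells on the same plate and log10 transformed; duplicate blinded samples were tested at 4 concentrations.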

[2] = compound: C=CC(F)(F)C(F)(F)C(F)(F)C(F)(F)C(F)(F)C(F)(F)C(F)(F)C(F)(F)C=C [1,8-Divinylperfluorooctane]
Method: as §1

[3] = compound: FC(F)C(F)(F)COCC1CO1 [((2,2,3,3-Tetrafluoropropoxy)methyl)oxirane]
Method: as §1

[4] = compound: NC(=O)C(F)(F)C(F)(F)C(F)(F)F [Heptafluorobutyramide]
Method: as §1

[5] = compound: NC(=O)C(F)(F)C(F)(F)F [Pentafluoropropionamide]
Method: as §1

[6] = compound: NCC(F)(F)C(F)(F)C(F)(F)C(F)(F)C(F)(F)C(F)(F)C(F)(F)F [1H,1H-Perfluorooctylamine]
Method: as §1

[7] = compound: O=C(O)C(F)(F)OC(F)(F)C(F)(F)OC(F)(F)F [Perfluoro-3,6-dioxaheptanoic acid]
Method: as §1

| Test System | level (log10) ([1]; 6700 nM) | level (log10) ([1]; 20000 nM) | level (log10) ([2]; 6700 nM) | level (log10) ([2]; 20000 nM) | level (log10) ([3]; 6700 nM) | level (log10) ([3]; 20000 nM) | level (log10) ([3]; 60000 nM) | level (log10) ([4]; 6700 nM) | level (log10) ([4]; 20000 nM) | level (log10) ([4]; 60000 nM) | level (log10) ([5]; 6700 nM) | level (log10) ([5]; 20000 nM) | level (log10) ([5]; 60000 nM) | level (log10) ([6]; 6700 nM) | level (log10) ([6]; 20000 nM) | level (log10) ([6]; 60000 nM) | level (log10) ([7]; 6700 nM) | level (log10) ([7]; 20000 nM) | level (log10) ([7]; 60000 nM) |
| --- | --- | --- | --- | --- | --- | --- | --- | --- | --- | --- | --- | --- | --- | --- | --- | --- | --- | --- | --- |
| KF3CT:CD54/ICAM-1 | -0.01 ± 0.0042 | -0.0175 ± 0.0021 | -0.0145 ± 0.00071 | -0.002 | -0.0065 ± 0.015 | -0.012 ± 0.0085 | -0.014 ± 0.016 | -0.012 ± 0.014 | -0.002 ± 0.0028 | 0.0015 ± 0.012 | -0.009 ± 0.0057 | -0.0045 ± 0.016 | 0.006 ± 0.018 | 0 | 0.0015 ± 0.005 | 0.011 ± 0.0057 | -0.0055 ± 0.0035 | -0.0115 ± 0.00071 | -0.02 ± 0.011 |
| MyoF:bFGF | -0.0015 ± 0.005 | 0.002 ± 0.0014 | 0.001 ± 0.0099 | 0.012 ± 0.02 | 0.012 ± 0.0057 | 0.0095 ± 0.0035 | 0.012 ± 0.011 | -0.0155 ± 0.021 | 0.004 ± 0.016 | -0.001 ± 0.013 | -0.002 ± 0.0042 | 0.0105 ± 0.012 | -0.0005 ± 0.029 | 0.0095 ± 0.028 | 0 ± 0.014 | 0.019 ± 0.0099 | -0.021 ± 0.023 | 0.0045 ± 0.023 | -0.0095 ± 0.021 |
| KF3CT:uPA | 0.007 ± 0.0057 | 0.007 ± 0.0028 | -0.0185 ± 0.0035 | -0.0185 ± 0.028 | 0.0015 ± 0.0092 | -0.0045 ± 0.032 | -0.0005 ± 0.015 | -0.0085 ± 0.022 | -0.0215 ± 0.026 | -0.006 ± 0.014 | -0.005 ± 0.0014 | 0.008 ± 0.0085 | 0.002 ± 0.018 | -0.017 ± 0.0028 | -0.0135 ± 0.0078 | -0.0225 ± 0.019 | -0.0175 ± 0.019 | 0.023 ± 0.033 | 0.017 ± 0.05 |
| lMphg:CD40 | 0.0035 ± 0.011 | -0.0085 ± 0.0078 | -0.04 ± 0.0099 | -0.0195 ± 0.032 | 0.0185 ± 0.061 | 0.0195 ± 0.029 | 0.0015 ± 0.011 | -0.021 ± 0.011 | -0.0185 ± 0.037 | -0.0025 ± 0.025 | -0.0235 ± 0.022 | -0.017 ± 0.011 | -0.0115 ± 0.013 | 0.0025 ± 0.005 | -0.0125 ± 0.035 | -0.069 ± 0.054 | -0.0125 ± 0.0035 | 0.0065 ± 0.028 | -0.0055 ± 0.036 |
| BE3C:MMP-1 | 0.026 ± 0.0042 | 0.014 ± 0.0057 | 0.0095 ± 0.069 | 0.0345 ± 0.0092 | -0.013 ± 0.02 | -0.0335 ± 0.019 | -0.0185 ± 0.0078 | 0.007 ± 0.0057 | 0.0045 ± 0.018 | 0.0195 ± 0.073 | 0.0275 ± 0.015 | 0.0185 ± 0.028 | 0.0665 ± 0.037 | -0.0305 ± 0.042 | -0.0235 ± 0.026 | -0.001 ± 0.04 | -0.042 ± 0.048 | -0.0015 ± 0.057 | 0.0145 ± 0.037 |
| CASM3C:IL-6 | -0.035 ± 0.0042 | 0.0345 ± 0.028 | -0.033 ± 0.024 | 0.003 ± 0.055 | -0.029 ± 0.0071 | -0.017 ± 0.0028 | 0.0175 ± 0.043 | -0.0275 ± 0.033 | -0.0105 ± 0.012 | 0.013 ± 0.042 | -0.021 ± 0.017 | -0.025 ± 0.0028 | -0.003 ± 0.041 | -0.0245 ± 0.037 | 0.0005 ± 0.057 | 0.035 ± 0.081 | -0.01 ± 0.044 | -0.0255 ± 0.0035 | -0.017 ± 0.02 |
| MyoF:TIMP-1 | -0.031 ± 0.023 | -0.024 ± 0.0057 | -0.0315 ± 0.054 | 0.01 ± 0.076 | 0.0165 ± 0.018 | -0.0295 ± 0.0092 | -0.001 ± 0.023 | -0.0285 ± 0.054 | -0.0325 ± 0.05 | -0.0435 ± 0.067 | -0.053 ± 0.027 | -0.048 ± 0.034 | -0.0225 ± 0.064 | 0.0045 ± 0.0092 | 0.01 ± 0.025 | -0.0005 ± 0.0021 | -0.0305 ± 0.097 | -0.006 ± 0.079 | -0.001 ± 0.044 |
| MyoF:Decorin | -0.006 ± 0.037 | 0.008 ± 0.052 | 0.0075 ± 0.013 | 0.0335 ± 0.022 | -0.0065 ± 0.0035 | -0.007 ± 0.0071 | 0.0075 ± 0.012 | -0.029 ± 0.057 | 0.02 ± 0.081 | 0.0065 ± 0.049 | 0.01 ± 0.017 | 0.0135 ± 0.00071 | 0.0325 ± 0.028 | -0.016 ± 0.011 | -0.025 ± 0.017 | -0.027 ± 0.0099 | -0.0075 ± 0.03 | -0.013 ± 0.017 | 0.012 ± 0.04 |
| HDF3CGF:EGFR | -0.0695 ± 0.0078 | -0.0415 ± 0.0064 | 0.033 | 0.005 ± 0.041 | 0.012 ± 0.014 | 0.0065 ± 0.005 | 0.029 ± 0.041 | 0.0095 ± 0.059 | 0.0005 ± 0.046 | -0.0155 ± 0.032 | 0.006 ± 0.0085 | -0.005 ± 0.011 | 0.007 ± 0.021 | -0.039 ± 0.047 | -0.047 ± 0.073 | -0.034 ± 0.086 | 0.033 ± 0.0071 | 0.031 ± 0.047 | 0.048 ± 0.054 |
| lMphg:CCL2/MCP-1 | 0.014 ± 0.0099 | 0.0175 ± 0.037 | -0.0195 ± 0.013 | 0.0125 ± 0.03 | -0.039 ± 0.034 | -0.018 ± 0.048 | -0.0095 ± 0.029 | -0.0035 ± 0.0021 | -0.001 ± 0.038 | 0.0175 ± 0.042 | -0.0145 ± 0.0035 | -0.012 ± 0.0042 | 0 ± 0.03 | -0.03 ± 0.0099 | -0.0245 ± 0.016 | -0.0275 ± 0.04 | 0.0035 ± 0.00071 | -0.006 ± 0.0099 | 0 ± 0.0042 |
| CASM3C:CXCL8/IL-8 | 0.005 ± 0.037 | 0.019 ± 0.028 | -0.017 ± 0.011 | -0.0145 ± 0.015 | -0.003 ± 0.0085 | -0.0195 ± 0.028 | 0.0215 ± 0.032 | -0.005 ± 0.0057 | -0.007 ± 0.0099 | 0.0075 ± 0.015 | -0.007 ± 0.014 | -0.017 ± 0.0071 | -0.0005 ± 0.012 | -0.005 ± 0.0057 | -0.022 ± 0.013 | 0.005 ± 0.027 | 0.011 ± 0.037 | 0.018 ± 0.052 | 0.0295 ± 0.039 |
| 3C:CD142/Tissue Factor | 0.0205 ± 0.015 | -0.0295 ± 0.046 | -0.068 ± 0.041 | -0.0205 ± 0.061 | -0.0175 ± 0.07 | -0.032 ± 0.05 | -0.036 ± 0.071 | -0.002 ± 0.064 | -0.007 ± 0.082 | -0.0235 ± 0.1 | -0.0305 ± 0.032 | -0.0575 ± 0.019 | -0.0205 ± 0.015 | -0.0275 ± 0.00071 | -0.0105 ± 0.00071 | -0.0255 ± 0.011 | -0.0295 ± 0.047 | -0.025 ± 0.04 | -0.053 ± 0.0014 |
| HDF3CGF:MMP-1 | 0.002 ± 0.0085 | 0.008 ± 0.018 | -0.0035 ± 0.005 | 0.0165 ± 0.012 | 0.0085 ± 0.012 | 0.0175 ± 0.0064 | 0.0125 ± 0.023 | 0.004 ± 0.011 | -0.01 | 0.001 ± 0.0057 | 0.006 ± 0.0085 | -0.011 ± 0.0085 | -0.01 | -0.012 ± 0.0014 | 0.0015 ± 0.0035 | 0.013 ± 0.0014 | -0.009 ± 0.0099 | 0.0085 ± 0.013 | -0.014 ± 0.03 |
| lMphg:CD106/VCAM-1 | -0.0315 ± 0.011 | -0.014 ± 0.0057 | -0.014 ± 0.018 | -0.016 ± 0.016 | -0.016 ± 0.038 | -0.0155 ± 0.025 | -0.017 ± 0.017 | 0.011 ± 0.014 | 0.004 ± 0.0071 | 0.013 ± 0.0028 | 0.0015 ± 0.033 | -0.009 ± 0.021 | -0.0045 ± 0.043 | -0.005 ± 0.0014 | -0.003 ± 0.014 | -0.0165 ± 0.005 | -0.004 ± 0.02 | 0.007 ± 0.014 | -0.004 ± 0.04 |
| lMphg:CD69 | -0.064 ± 0.082 | -0.0825 ± 0.08 | -0.013 ± 0.0042 | -0.011 ± 0.014 | -0.048 ± 0.02 | -0.001 ± 0.0071 | -0.028 ± 0.033 | -0.0155 ± 0.022 | -0.0145 ± 0.044 | 0.0115 ± 0.066 | -0.021 ± 0.0071 | -0.036 | 0.0125 ± 0.077 | -0.039 ± 0.0099 | -0.0475 ± 0.019 | -0.0265 ± 0.00071 | 0.0255 ± 0.069 | 0.0085 ± 0.033 | 0.058 ± 0.0085 |
